Values of other authors in US8470377B2, “Composition and method for reducing food intake” (Natures Remedies Ltd., priority 2009, dated 2013).

Legend:
[1] = for food intake and appetite ratings: literature studies
[2] = test system: GLP-1; settings: approximately 20 g per day for 7 days, human volunteers

Row | Molecule | food intake and appetite ratings [1] | further results
1 | O=C(O)CC(O)(C(=O)O)C(O)C(=O)O (centres unmarked) [HCA-SX, hydroxycitric acid] | – | decrease in food intake ([1]; human studies): 4%
2 | beta-glucan | not significantly reduced | –
3 | fructooligosaccharides | not significantly reduced | –
4 | methylcellulose | not significantly reduced | –
5 | oligofructose | – | reduction in total intake ([1]; human studies): 5%; serum GLP-1 levels [2]: increased
6 | pectin | not significantly reduced | –
7 | sodium alginate | – | reduction in energy intake ([1]; human studies): 7%
